We go through 5 molecules from US7534778B2, “(20S)-1α-hydroxy-2-methylene-19-nor-bishomopregnacalciferol and its uses” (Wisconsin Alumni Research Foundation, priority 2001, dated 2009).

Each structure is given as a SMILES string. Entries after “also recorded” stand apart in the source; their conditions may differ. Where two headings read alike, the source gives them in different places.

Usually EC50 stands for the concentration at which the effect is half-maximal. As usually defined, the Ki is the equilibrium dissociation constant of an inhibitor or competing ligand from its target.

One data set concerns HL-60 cells. The data set can be described thus: HL-60 cell differentiation into monocytes. Format: cell-based. The note with it: FIG. 3; for EC50: HL-60 cells, read-out: EC50, HL60 differentiation. Here is the method:
The differentiation of HL-60 promyelocytic into monocytes was determined as described by Ostrem et al (J. Biol. Chem. 262, 14164-14171, 1987).
VDR binding and HL60 cell differentiation.

Data set [1] deals with calcium mobilization from bone. The data set can be described thus: bone calcium mobilization in vitamin D-deficient rats on low calcium diet. The conditions noted are these: for bone calcium mobilization activity (serum calcium levels): low calcium diet (0.02%), overall / all dosages, FIG. 4. Format: in vivo, rat. On the procedure: (§1) Calcium mobilization from bone and intestinal calcium absorption in vitamin D-deficient animals. Using vitamin D-deficient rats on a low calcium diet (0.02%), the activities of these compounds in intestine and bone were tested.

Data set [2] is described as follows: serum calcium response in vitamin D-sufficient normal female rats. Format: in vivo, rat. The conditions noted are these: for serum calcium (hypercalcemia): normal female rats, 5000 pmol/day for 7 days, oral or intraperitoneal, 4 hours after last dose. On the procedure: Serum calcium response in vitamin D-sufficient animals on a normal calcium diet. […] The doses were administered to two separate groups of animals by either the oral or intraperitoneal route, and serum calcium levels were assessed 4 hours after the last dose.

Data set [3] concerns the target T1, full-length recombinant rat vitamin D receptor (Rattus norvegicus, UniProt P13053).
T1 sequence (P13053 1-423): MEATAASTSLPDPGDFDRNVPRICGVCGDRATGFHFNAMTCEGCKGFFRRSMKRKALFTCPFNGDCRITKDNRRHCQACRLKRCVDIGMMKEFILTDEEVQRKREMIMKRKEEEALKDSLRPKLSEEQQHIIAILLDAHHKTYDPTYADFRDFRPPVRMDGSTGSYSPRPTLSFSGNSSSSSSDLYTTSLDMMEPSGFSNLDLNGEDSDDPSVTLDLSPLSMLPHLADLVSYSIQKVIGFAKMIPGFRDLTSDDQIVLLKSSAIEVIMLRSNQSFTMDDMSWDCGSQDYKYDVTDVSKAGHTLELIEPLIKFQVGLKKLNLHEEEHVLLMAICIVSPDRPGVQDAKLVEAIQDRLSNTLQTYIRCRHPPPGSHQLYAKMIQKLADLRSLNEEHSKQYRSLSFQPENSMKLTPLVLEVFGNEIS
The data set can be described thus: competition with [3H]-1,25(OH)2D3 for binding to vitamin D receptor. The note with it: FIG. 2, read-out: Ki, competition with [3H]-1,25(OH)2D3 for VDR binding.

In data set [4] the test system is intestinal calcium transport. The data set can be described thus: intestinal calcium transport, everted gut sac method, vitamin D-deficient rats. Format: in vivo, rat. The note with it: for intestinal calcium transport: everted gut sac, vitamin D-deficient rats. On the procedure: as §1
Intestinal calcium transport was evaluated in the same groups of animals using the everted gut sac method (FIG. 5).

Data set [5] has as its system porcine intestinal vitamin D receptor. The data set can be described thus: binding to porcine intestinal vitamin D receptor. The note with it: FIG. 2.

With `C[C@H](CCCC(C)(C)O)[C@H]1CC[C@H]2/C(=C/C=C3C[C@@H](O)C[C@H](O)C3)CCC[C@]12C` [1,25(OH)2 19-nor-D3, 1α,25-dihydroxy-19-nor-vitamin D3, reference compound], the concentration for a half-maximal effect (EC50) in the data set with HL-60 cells is 4 nM. In data set [1] (260 pmol/day for 7 days), the “mobilization of bone calcium” value is “did not result in mobilization of bone calcium”. The “serum calcium (hypercalcemia)” value in data set [2] is on record as “produced frank hypercalcemia”. In addition, in data set [3], the Ki turned out to be 0.2 nM. Besides, in data set [4] (overall, dose not stated), the “intestinal calcium transport activity” value is “devoid of intestinal calcium transport activity”.
For the molecule `C=C1/C(=C\C=C2/CCC[C@]3(C)[C@@H]([C@H](C)CCCC(C)(C)O)CC[C@@H]23)C[C@@H](O)C[C@@H]1O` [1,25(OH)2D3, 1α,25-dihydroxyvitamin D3, reference compound], the EC50 in the data set on HL-60 cells is 5 nM. The “bone calcium mobilization activity (serum calcium levels)” value (from here on “bone calcium mobilization activity”) in data set [1] is recorded as “increased serum calcium levels at all dosages”. Also, the intestinal calcium transport entry in data set [4] (260 pmol/day) is “promotes a significant increase”.
With `C=C1C(O)CC(=CC=C2CCCC3(C)C2CCC3C(C)C)CC1O` (stereo not drawn) [2-MP, 1α-hydroxy-2-methylene-19-nor-homopregnacalciferol], in the data set on HL-60 cells, the 50% effective concentration (EC50) is 6 nM. For the same molecule, the results for the “mobilization of bone calcium” value in data set [1] (260 pmol/day for 7 days) and in data set [1] (1300 pmol/day (5-fold)) were “did not result in mobilization of bone calcium” and “without effect”, respectively. Besides, the “bone calcium mobilization activity” value in data set [1] is recorded as “little, if any, activity in mobilizing calcium from bone”. In addition, the inhibition constant Ki in data set [3] is 0.3 nM. In addition, the intestinal calcium transport entry in data set [4] (260 or 1300 pmol/day) is recorded as “calcium transport activity equivalent to 1,25(OH)2D3”. The “intestinal calcium transport activity” value in data set [4] (doses higher than 1300 pmol/day) is given as “decreased this activity”.
For the molecule `C=C1[C@H](O)CC(=C/C=C2\CCC[C@]3(C)[C@@H]([C@@H](C)CC)CC[C@@H]23)C[C@H]1O` [2-MbisP, (20S)-1α-hydroxy-2-methylene-19-nor-bishomopregnacalciferol], the “potency on HL-60 differentiation relative to 1,25(OH)2D3” value in the data set on HL-60 cells was “almost as potent as 1,25(OH)2D3”. Besides, the concentration giving a half-maximal response (EC50) in the data set on HL-60 cells (Homo sapiens) was 7 nM. For the same molecule, the “mobilization of bone calcium” value in data set [1] (260 pmol/day for 7 days) is on record as “did not result in mobilization of bone calcium”; in data set [1] (1300 pmol/day (5-fold)), “without effect”. Further, in data set [1], the “bone calcium mobilization activity” value is “very little bone calcium mobilization activity; also recorded: little, if any, activity in mobilizing calcium from bone”. Besides, in data set [2], the “serum calcium (hypercalcemia)” value is recorded as “no increase in serum calcium”. The “calcemic activity from serum calcium” value in data set [2] (rats, chronic doses, FIG. 6) was “very little calcemic activity”. Also, the inhibition constant (Ki) in data set [3] worked out at 0.6 nM. Moreover, in data set [5], the “binding to porcine receptor compared to standard 1,25-(OH)2D3” value is listed as “bound equally well”. For the same molecule, the intestinal calcium transport result in data set [4] (260 or 1300 pmol/day) is given as “do not promote intestinal calcium transport”. Moreover, the “intestinal calcium transport activity” value in data set [4] (overall, dose not stated) is listed as “very little activity”.
Take `C=C1[C@H](O)CC(=C/C=C2\CCC[C@]3(C)[C@@H](CC)CC[C@@H]23)C[C@H]1O` [2-Mpregna, 1α-hydroxy-2-methylene-19-nor-pregnacalciferol]: in the data set on HL-60 cells, the half-maximal effective concentration (EC50) worked out at 17 nM. Besides, the “mobilization of bone calcium” value is recorded as “did not result in mobilization of bone calcium” in data set [1] (260 pmol/day for 7 days) and “without effect” in data set [1] (1300 pmol/day (5-fold)). In addition, the “bone calcium mobilization activity” value in data set [1] is “little, if any, activity in mobilizing calcium from bone”. In data set [3], the Ki came out at 0.3 nM. Also, in data set [4] (260 or 1300 pmol/day), the intestinal calcium transport result is “do not promote intestinal calcium transport”.
